Measured values taken from article PMC4414309, “Target Modulation by a Kinase Inhibitor Engineered to Induce a Tandem Blockade of the Epidermal Growth Factor Receptor (EGFR) and c-Src: The Concept of Type III Combi-Targeting” (PLoS ONE, 2015).
Read-outs that look alike come from different tables or passages of the source.

How the values were obtained:
[1] = LC-MS analysis of AL776 hydrolysis in plasma in vivo; set-up: species or system CD-1 mice; details: AL776 80 mg/kg i.v., after 30 min
Description: CD-1 mice were divided into groups of three and treated with 80 mg/kg of AL776, injected intraperitoneally (i.p) or intravenously (i.v). Mice were sacrificed and their plasma was collected for further analysis after 0, 5, 15 and 30 min after drug treatment. Plasma samples were extracted using twice the volume of methanol and lysed at 13,000 rpm for 30 min at 4°C. The resulting supernatant from each sample was collected, filtered and evaporated to dryness before reconstituting in 100 μL of methanol. LC-MS analyses were performed on a Synapt G2-S instrument coupled with an Acquity UPLC Class I system both from Waters. Elution rate was set at 500 μL/min using an Eclipse XDB C8, 3.5 um, 2.1 x 100 mm chromatographic column from Agilent Technologies. The experiments were performed with the following eluents: 0.1% aqueous formic acid (eluent A) and methanol (eluent B). The initial mobile phase was 30% B, which was maintained for 0.2 min at the beginning of the run. The following gradient elution was subsequently applied: 30 to 50% B from 0.2 to 4 min; 50 to 80% B from 4 to 10 min; held at 80% B from 10 to 11 min. Thereafter, eluent B was decreased to 30% in 0.2 min and held constant for up to 15 min to allow the column to equilibrate. Each sample was diluted with methanol in order to avoid detector saturation and […] aliquots of the resulting solutions were injected. Analyses were performed with the electrospray interface in positive ion mode and mass spectra acquired from m/z 100 to 1200. For accurate mass determination, Leucine Enkephalin was used as lock mass. The MassLynx software was used for instrument control, data acquisition and data processing.

EGFR [2] = target: T1, EGFR (Homo sapiens, UniProt P00533); set-up: method as in PMID 22943437; details: read-out: IC50 EGFR kinase inhibition (published); cited from earlier work
T1 construct: purchased Enzo Life Sciences Inc, NY, USA; Signal Chem, Richmond, Canada

EGFR [3] = target: T1, EGFR; test: Published EGFR kinase inhibition of AL621; type: biochemical; details: published IC50 of AL621 compared with AL776
4T1 cells [4] = test: Growth inhibition, SRB assay, 4T1; details: Mus musculus, 4T1, 120 h, read-out: IC50 growth inhibition 4T1
Description: (§3) Growth inhibition was measured in cells using the sulforhodamine B (SRB) assay [48]. […] The plates were subsequently rinsed with 1% acetic acid, and allowed to dry overnight. […] The results were analyzed using GraphPad Prism 6.0 (GraphPadSoftware, Inc., San Diego, CA) and the sigmoidal dose response curve was used to determine IC50 values. Each experiment was carried out at least four times, in triplicate.

4T1 cells [5] = test: Boyden chamber invasion assay, 4T1; type: cell-based, mouse; details: for Effect on invasion: 4T1, concentration as low as 0.1 μM, 24h
Description: (§1) The invasive property of MDA-MB-231 and 4T1 cells was determined using the Boyden-chamber invasion assay. Cells suspended in serum-free media were plated (120–150,000 cells/well) onto polycarbonate transwell inserts (8 μm pore size, BD Biosciences) coated with matrigel (6%) (BD Biosciences), separating the top and bottom chambers (50 μl/filter). […] The invasive property of cells was observed 24h after treatment by fixing cells in formalin and staining with 0.1% crystal violet (Sigma-Aldrich Canada Ltd). Cells attached on the upper surface of the insert (top chamber) were removed by gently scraping away with a cotton swab, whereas those that invaded onto the lower side of the insert were observed using a microscope (Leica DM IL inverted microscope, 10X). Images of five non-overlapping fields of invading cells were captured using the Leica DFC300FX camera and quantification was done using the Scion Image Analysis (3.53.0.0) software and ImageJ 1.46r software. The results were expressed in terms of percentage of invading cells relative to control and the bar graphs represent the average of three independent experiments.

NIH3T3 wild type cells = test: Growth inhibition, sulforhodamine B (SRB) assay, NIH3T3 wild type; details: Mus musculus, NIH3T3, 120 h, read-out: IC50 growth inhibition NIH3T3 – Wt
Description: as §3

MDA-MB-231 cells [6] = test: Boyden chamber invasion assay, MDA-MB-231; type: cell-based, human; details: for Effect on invasion: MDA-MB-231, concentration as low as 0.1 μM, 24h
Description: as §1

MDA-MB-231 cells [7] = test: Growth inhibition, SRB assay, MDA-MB-231; details: Homo sapiens, MDA-MB-231, 120 h, read-out: IC50 growth inhibition MDA-MB-231
Description: as §3

EGFR [8] = target: T1, EGFR; test: In vitro kinase assay, EGFR; type: biochemical; details: ATP 50 μM, average of three independent experiments in duplicate, read-out: IC50 EGFR kinase inhibition
Description: (§2) The EGFR and c-Src kinase assays were performed in 96-well plates (NuncMaxisorp) coated with PGT (poly L-glutamic acid L-tyrosine, 4:1, Sigma Aldrich, MO, USA) and incubated at 37°C for 48h prior to using. PGT served as the substrate to be phosphorylated by EGFR (Enzo Life Sciences Inc, NY, USA, Signal Chem, Richmond, Canada) and c-Src (Enzo Life Sciences Inc, NY, USA, Signal Chem, Richmond, Canada) in the presence of ATP (50 μM). […] To each well, 15 ng of EGFR (20 μg/ml) or 6 ng of c-Src (0.1 μg/μl) were added. The phosphorylated substrate was detected using an HRP-conjugated anti-phosphotyrosine antibody (Santa Cruz Biotechnology, CA). The signal was developed by the addition of 3, 3’, 5, 5’-tetramethylbenzidine peroxidase substrate (Kierkegaard and Perry Laboratories, Gaithersburg, MD) and the colorimetric reaction was monitored at 450 nm using a microplate reader ELx808 (BioTek Instruments). The IC50 values were calculated using GraphPad Prism 6.0 (GraphPadSoftware, Inc., San Diego, CA). Each experiment was carried out at least three times, in duplicate.

c-Src = target: T2, c-Src (Homo sapiens, UniProt P12931); test: In vitro kinase assay, c-Src; type: biochemical; details: ATP 50 μM, read-out: IC50 c-Src kinase inhibition
T2 construct: purchased Enzo Life Sciences Inc, NY, USA; Signal Chem, Richmond, Canada
Description: as §2

[9] = average of three independent experiments in duplicate

T2 sequence (P12931 whole entry): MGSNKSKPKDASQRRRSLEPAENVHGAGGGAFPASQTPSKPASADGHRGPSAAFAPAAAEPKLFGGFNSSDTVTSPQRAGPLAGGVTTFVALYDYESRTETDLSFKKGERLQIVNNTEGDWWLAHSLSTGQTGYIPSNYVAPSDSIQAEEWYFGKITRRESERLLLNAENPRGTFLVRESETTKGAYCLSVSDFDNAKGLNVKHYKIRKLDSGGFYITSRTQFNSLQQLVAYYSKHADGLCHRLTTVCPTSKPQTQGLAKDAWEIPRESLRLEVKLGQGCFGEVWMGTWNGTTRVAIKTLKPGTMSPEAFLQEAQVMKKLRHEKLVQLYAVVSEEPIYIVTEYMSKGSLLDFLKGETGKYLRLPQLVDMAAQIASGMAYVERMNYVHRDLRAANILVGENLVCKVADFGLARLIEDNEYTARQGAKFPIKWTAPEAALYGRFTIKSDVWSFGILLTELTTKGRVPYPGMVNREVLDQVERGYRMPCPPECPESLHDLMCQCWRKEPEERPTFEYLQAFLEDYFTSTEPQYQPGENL
T1 sequence (P00533 25-1210): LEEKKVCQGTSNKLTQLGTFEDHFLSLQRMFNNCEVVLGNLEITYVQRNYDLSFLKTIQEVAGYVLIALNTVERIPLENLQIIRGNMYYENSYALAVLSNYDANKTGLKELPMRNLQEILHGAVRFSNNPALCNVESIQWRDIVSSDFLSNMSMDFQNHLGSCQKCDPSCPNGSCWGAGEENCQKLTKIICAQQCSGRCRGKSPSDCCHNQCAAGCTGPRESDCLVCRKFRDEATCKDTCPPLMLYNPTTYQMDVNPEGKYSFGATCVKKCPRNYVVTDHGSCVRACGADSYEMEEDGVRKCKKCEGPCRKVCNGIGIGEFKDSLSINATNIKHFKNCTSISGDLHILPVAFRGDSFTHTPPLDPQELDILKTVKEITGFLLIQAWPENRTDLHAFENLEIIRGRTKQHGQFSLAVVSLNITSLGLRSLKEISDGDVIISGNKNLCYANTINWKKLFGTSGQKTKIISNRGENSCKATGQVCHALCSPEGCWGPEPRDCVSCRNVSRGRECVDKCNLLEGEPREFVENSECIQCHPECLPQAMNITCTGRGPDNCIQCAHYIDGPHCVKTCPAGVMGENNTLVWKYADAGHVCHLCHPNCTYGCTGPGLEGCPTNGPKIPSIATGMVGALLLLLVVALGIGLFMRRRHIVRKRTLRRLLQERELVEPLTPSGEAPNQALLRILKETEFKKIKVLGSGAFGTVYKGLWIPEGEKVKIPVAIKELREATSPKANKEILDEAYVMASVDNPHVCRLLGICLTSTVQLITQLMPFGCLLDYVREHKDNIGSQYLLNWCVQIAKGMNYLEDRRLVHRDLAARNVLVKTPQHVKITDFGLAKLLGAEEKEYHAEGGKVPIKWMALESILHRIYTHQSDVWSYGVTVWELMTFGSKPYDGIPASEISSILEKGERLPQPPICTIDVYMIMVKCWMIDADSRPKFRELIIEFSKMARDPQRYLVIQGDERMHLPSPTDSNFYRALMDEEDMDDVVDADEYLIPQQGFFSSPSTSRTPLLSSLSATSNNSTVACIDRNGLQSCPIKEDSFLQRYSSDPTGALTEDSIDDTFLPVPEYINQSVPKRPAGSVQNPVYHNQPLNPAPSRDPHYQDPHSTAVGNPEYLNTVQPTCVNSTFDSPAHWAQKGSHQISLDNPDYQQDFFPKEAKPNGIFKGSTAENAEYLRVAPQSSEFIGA

Compound | Plasma level as metabolite of AL776 [1] | Effect on invasion (4T1 cells [5]) | Effect on invasion (MDA-MB-231 cells [6]) | IC50 (EGFR [8]) | IC50 (c-Src; [9]) | other results
CN(CCO)Cc1ccc(C(=O)Nc2ccc3ncnc(Nc4cccc(Cl)c4)c3c2)cc1 [AL621] | abundant levels | – | – | – | – | IC50 (EGFR [2]): 3 nM; EGFR kinase potency relative to intact AL776 (EGFR [3]): ca. 40 fold
Cc1nc(Nc2ncc(C(=O)Nc3c(C)cccc3Cl)s2)cc(N2CCN(CCO)CC2)n1 [Dasatinib, dasatinib, reference compound] | abundant levels | strongly inhibited invasion | strongly inhibited invasion | – | – | IC50 (4T1 cells [4]): 50 ± 20 nM; IC50 (NIH3T3 wild type cells): 16400 ± 5200 nM; IC50 (MDA-MB-231 cells [7]): 20 ± 10 nM
COc1cc2ncnc(Nc3ccc(F)c(Cl)c3)c2cc1OCCCN1CCOCC1 [Gefitinib, gefitinib] | – | mostly unable to block invasion | mostly unable to block invasion | – | – | Anti-invasive effect weaker than dasatinib (4T1 cells [5]; 4T1): 2-3 fold; Anti-invasive effect weaker than dasatinib (MDA-MB-231 cells [6]; MDA-MB-231): 2-3 fold
Cc1nc(Nc2ncc(C(=O)Nc3c(C)cccc3Cl)s2)cc(N2CCN(CCOC(=O)c3cnc(C(=O)Nc4ccc5ncnc(Nc6cccc(Cl)c6)c5c4)cn3)CC2)n1 [III] | – | – | – | 600 ± 200 nM | – | IC50 (c-Src): < 0.1 nM
Cc1nc(Nc2ncc(C(=O)Nc3c(C)cccc3Cl)s2)cc(N2CCN(CCOC(=O)CCC(=O)Nc3ccc4ncnc(Nc5cccc(Cl)c5)c4c3)CC2)n1 [IV] | – | – | – | 400 ± 100 nM | 8 ± 3 nM | –
Cc1nc(Nc2ncc(C(=O)Nc3c(C)cccc3Cl)s2)cc(N2CCN(CCOC(=O)OCCN3CCN(CCNc4ccc5ncnc(Nc6cccc(Br)c6)c5c4)CC3)CC2)n1 [VI] | – | – | – | 1100 ± 300 nM | 40 ± 10 nM | –
